# Active and inactive are the calls of the source.
# Assays:
# [1] = Luminescence Cell-Based Dose Response HTS to Identify Inhibitors of 5'UTR Stem-Loop Driven Prion Protein mRNA Translation in H4 Neuroglioblastoma Cells. [Related pubchem assays: 1827 (Project Summary), 1813 (Primary HTS)]; format: functional
# [2] = alpha-synuclein stem-loop luciferase translation blockers – H4 neuroglioma cells, luminescence, confirmation (AID 1988); format: functional, cell-based
# [3] = luciferase reporter signal suppression in cells – H4 neuroglioma cells, luminescence, dose response (AID 1990); format: functional, cell-based
# [4] = biological target: T1, Rac GTPase-activating protein 1 (Homo sapiens, UniProt Q9H0H5); assay: blockers of MgcRacGAP-driven Rac1 GTP hydrolysis – biochemical, ADP Hunter fluorescence, primary and confirmatory, confirmation (AID 624330); format: functional
# T1 sequence (Q9H0H5 whole entry): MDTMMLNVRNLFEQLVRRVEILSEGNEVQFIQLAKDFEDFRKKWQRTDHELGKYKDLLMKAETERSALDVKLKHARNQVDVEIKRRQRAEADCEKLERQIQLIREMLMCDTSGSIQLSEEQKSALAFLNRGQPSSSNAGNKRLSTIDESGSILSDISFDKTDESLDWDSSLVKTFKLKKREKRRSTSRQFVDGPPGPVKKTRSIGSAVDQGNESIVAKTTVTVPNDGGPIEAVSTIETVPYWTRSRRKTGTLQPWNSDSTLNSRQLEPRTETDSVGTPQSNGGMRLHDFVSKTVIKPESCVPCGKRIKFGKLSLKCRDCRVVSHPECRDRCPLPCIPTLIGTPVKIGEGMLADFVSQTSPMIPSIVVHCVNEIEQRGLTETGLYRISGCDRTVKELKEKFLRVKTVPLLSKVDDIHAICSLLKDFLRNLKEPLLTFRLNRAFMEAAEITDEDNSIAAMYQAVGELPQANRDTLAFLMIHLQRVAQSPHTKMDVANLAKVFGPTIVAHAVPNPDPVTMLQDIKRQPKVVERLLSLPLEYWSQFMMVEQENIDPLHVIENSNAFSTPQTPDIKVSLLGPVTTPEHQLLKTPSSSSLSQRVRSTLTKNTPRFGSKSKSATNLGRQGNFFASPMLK
# Large T antigen = Large T antigen (Simian virus 40, UniProt P03070); format: functional, Betapolyomavirus macacae;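 note: Confirmatory-stage PubChem screen for compounds that inhibit SV40 T antigen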
# Cytochrome P450 2D6 = Cytochrome P450 2D6 (Homo sapiens, UniProt P10635);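 note: CYP2D6 member of a cytochrome P450 panel assay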
# Cytochrome P450 1A2 = biological target: T2, Cytochrome P450 1A2 (Homo sapiens, UniProt P05177);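 note: PubChem cytochrome P450 panel assay, CYP1A2 panel member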
# T2 sequence (P05177 whole entry): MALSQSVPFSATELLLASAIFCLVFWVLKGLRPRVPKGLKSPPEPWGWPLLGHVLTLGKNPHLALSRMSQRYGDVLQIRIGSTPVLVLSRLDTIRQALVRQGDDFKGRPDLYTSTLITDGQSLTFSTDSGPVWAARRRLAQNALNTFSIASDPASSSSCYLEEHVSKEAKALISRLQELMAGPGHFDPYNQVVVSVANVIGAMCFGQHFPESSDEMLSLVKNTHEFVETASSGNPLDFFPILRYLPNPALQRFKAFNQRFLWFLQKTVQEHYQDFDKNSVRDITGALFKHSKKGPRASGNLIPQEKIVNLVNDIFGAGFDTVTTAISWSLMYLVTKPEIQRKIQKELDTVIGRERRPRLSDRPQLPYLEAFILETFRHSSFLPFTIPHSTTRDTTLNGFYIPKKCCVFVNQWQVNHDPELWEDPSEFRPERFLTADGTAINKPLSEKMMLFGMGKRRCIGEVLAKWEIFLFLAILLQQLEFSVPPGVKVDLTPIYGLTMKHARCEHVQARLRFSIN
# [5] = biological target: T3, Corticotropin-releasing factor receptor 2/Corticotropin-releasing factor-binding protein (Homo sapiens, UniProt P24387+Q13324); assay: activators of CRF receptor 2 with binding protein – uHTS hits, confirmation (AID 602473); format: functional; conditions: read-out: EC50_Mean
# T3 sequence (Q13324 whole entry): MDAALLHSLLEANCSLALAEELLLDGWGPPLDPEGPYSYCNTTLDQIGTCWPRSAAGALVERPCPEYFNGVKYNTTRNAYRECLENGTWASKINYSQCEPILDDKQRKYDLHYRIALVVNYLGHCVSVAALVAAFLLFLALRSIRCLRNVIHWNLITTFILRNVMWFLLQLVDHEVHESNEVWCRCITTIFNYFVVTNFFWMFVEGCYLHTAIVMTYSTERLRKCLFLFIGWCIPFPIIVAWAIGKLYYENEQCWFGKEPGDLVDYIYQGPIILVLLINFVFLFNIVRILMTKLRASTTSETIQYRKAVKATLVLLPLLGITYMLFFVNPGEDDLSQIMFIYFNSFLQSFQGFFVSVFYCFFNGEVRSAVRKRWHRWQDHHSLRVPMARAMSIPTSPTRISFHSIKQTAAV
# T3 sequence (P24387 whole entry): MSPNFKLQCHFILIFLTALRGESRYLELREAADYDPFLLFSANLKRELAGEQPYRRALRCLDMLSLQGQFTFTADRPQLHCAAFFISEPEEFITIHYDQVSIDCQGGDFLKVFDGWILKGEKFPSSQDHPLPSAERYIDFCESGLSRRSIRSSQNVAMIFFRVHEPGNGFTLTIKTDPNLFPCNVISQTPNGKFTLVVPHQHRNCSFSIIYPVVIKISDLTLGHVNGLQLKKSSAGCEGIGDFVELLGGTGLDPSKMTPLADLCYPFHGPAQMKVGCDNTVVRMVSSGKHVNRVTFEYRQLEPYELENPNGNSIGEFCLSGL
# [6] = biological target: T3, Corticotropin-releasing factor receptor 2/Corticotropin-releasing factor-binding protein; assay: Dose Response confirmation of uHTS hits for small molecule antagonists of the CRF-binding protein and CRF-R2 receptor complex.; format: functional; conditions: read-out: IC50_Mean
# [7] = non-specific 3'UTR reporter inhibition in Clone20-Shn3RL – cell-based, Renilla luciferase, cherry-picked, counter-screen for Shn3 inhibitor project, dose response (AID 624133); format: functional
# [8] = NIH3T3 cell viability loss – ATP luminescence, mouse fibroblasts, counter-screen, dose response (AID 2010); format: functional, cell-based;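 note: cells exposed to compound for about 90 hours before reading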
# [9] = reduction of Shn3 3'UTR-driven luciferase in osteoblasts – cell-based, Clone20 osteoblasts, firefly luciferase, cherry-picked, dose response (AID 624132); format: functional;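 note: firefly luciferase luminescence from reporter carrying the Shn3 3'UTR in osteoblasts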
# [10] = Trypanosoma cruzi growth suppression in host cells – NIH3T3 host cells, beta-gal luminescence, confirmation (AID 2044); format: functional, cell-based;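 note: intracellular parasites grown in NIH/3T3 mouse fibroblasts as host cells; luminescent beta-galactosidase reporter signal from transgenic T. cruzi replicating inside host cells; inhibitors lower the luminescence signal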
# [11] = Luminescence Cell-Based Dose Retest to Confirm Inhibitors of Cancer Stem Cells. [Related pubchem assays (depositor defined):AID2717, AID2721]; format: functional; conditions: Homo sapiens
# [12] = biological target: FAD-linked sulfhydryl oxidase ALR (Homo sapiens, UniProt P55789); assay: ALR-catalysed DTT oxidation blockers – biochemical, H2O2 detection, luminescence, cherry-pick, dose response (AID 493248)
# Cytochrome P450 2C19 = Cytochrome P450 2C19 (Homo sapiens, UniProt P33261); assay: Cytochrome panel assay with activity outcomes. Panel member name: p450-cyp2c19 Compounds with AC50 equal or less than 10 uM are considered active; format: functional; conditions: read-out: AC50
# Cytochrome P450 3A4 = Cytochrome P450 3A4 (Homo sapiens, UniProt P08684);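 note: CYP3A4 tested as one member of a cytochrome P450 panel screen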
# Chain of Cytochrome P450 3A4 (P08684 whole entry): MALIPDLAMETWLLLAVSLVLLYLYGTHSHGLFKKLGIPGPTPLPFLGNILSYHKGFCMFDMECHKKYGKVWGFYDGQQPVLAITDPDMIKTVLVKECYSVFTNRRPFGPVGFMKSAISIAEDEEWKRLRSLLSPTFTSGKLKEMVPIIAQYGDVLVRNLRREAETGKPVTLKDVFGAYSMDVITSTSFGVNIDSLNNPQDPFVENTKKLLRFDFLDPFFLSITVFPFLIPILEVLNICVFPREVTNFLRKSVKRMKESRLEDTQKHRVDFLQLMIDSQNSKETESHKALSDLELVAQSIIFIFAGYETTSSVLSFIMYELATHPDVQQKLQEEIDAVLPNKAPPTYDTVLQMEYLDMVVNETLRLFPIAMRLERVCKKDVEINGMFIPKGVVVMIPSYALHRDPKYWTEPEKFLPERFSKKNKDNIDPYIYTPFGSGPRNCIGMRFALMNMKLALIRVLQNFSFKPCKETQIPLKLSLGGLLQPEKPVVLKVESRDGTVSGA
# Chain of Cytochrome P450 2D6 (P10635 whole entry): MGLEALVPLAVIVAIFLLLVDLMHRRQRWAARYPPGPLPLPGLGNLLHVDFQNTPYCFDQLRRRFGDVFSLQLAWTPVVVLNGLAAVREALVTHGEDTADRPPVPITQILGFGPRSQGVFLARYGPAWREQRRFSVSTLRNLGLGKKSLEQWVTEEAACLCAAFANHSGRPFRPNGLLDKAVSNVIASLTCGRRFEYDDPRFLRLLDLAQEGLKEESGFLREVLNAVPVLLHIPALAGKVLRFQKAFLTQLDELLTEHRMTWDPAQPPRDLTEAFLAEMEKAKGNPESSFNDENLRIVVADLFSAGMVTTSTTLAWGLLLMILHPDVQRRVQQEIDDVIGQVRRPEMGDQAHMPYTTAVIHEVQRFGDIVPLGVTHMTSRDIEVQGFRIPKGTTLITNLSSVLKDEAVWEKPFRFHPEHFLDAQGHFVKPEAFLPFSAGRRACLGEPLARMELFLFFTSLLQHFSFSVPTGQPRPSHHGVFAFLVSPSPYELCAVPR
# Chain of Cytochrome P450 2C19 (P33261 whole entry): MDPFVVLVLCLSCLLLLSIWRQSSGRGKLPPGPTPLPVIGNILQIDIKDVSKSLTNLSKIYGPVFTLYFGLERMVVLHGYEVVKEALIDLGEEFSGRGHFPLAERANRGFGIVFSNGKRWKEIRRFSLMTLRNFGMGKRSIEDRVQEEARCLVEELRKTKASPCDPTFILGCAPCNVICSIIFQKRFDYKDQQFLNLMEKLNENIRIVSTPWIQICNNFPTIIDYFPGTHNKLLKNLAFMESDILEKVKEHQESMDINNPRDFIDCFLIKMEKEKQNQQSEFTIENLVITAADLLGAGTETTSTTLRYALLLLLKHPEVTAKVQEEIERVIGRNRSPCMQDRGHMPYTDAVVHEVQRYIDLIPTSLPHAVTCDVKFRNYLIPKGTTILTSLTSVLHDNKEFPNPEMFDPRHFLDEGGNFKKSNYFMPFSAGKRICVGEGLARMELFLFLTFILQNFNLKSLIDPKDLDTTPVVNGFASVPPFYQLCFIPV
# Chain of FAD-linked sulfhydryl oxidase ALR (P55789 whole entry): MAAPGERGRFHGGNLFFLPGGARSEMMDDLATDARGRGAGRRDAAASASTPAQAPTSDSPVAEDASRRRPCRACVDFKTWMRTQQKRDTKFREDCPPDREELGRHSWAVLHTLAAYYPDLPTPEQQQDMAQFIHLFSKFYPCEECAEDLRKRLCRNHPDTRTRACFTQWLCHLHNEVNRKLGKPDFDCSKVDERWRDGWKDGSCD
# Chain of Large T antigen (P03070 whole entry): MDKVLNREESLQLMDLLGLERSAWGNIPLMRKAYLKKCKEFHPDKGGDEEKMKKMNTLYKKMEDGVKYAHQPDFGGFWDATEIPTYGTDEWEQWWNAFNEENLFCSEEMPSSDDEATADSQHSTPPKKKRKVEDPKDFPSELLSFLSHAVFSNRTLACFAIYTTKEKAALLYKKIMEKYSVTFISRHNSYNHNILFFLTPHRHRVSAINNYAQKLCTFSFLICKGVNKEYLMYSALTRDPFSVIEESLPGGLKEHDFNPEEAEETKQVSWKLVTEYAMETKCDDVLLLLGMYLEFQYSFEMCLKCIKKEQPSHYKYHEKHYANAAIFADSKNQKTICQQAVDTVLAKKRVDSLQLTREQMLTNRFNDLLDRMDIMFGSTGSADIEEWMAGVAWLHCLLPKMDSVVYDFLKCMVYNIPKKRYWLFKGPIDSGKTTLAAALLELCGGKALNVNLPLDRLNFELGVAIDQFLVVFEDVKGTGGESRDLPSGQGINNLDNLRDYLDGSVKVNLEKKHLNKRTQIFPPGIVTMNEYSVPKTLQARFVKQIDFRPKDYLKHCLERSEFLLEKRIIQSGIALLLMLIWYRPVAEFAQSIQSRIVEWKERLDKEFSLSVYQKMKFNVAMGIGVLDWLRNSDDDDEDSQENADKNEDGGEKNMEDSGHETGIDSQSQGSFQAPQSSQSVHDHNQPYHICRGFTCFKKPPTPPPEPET
structure (smiles),measurement,setting,value
COc1ccc(NC(=O)CNC(=O)Cn2c(C)cc3ccccc3c2=O)c(OC)c1,EC50,[1],> 120 µM (not active)
same,EC50,[2],> 120 µM (not active)
same,EC50,[3],> 120 µM (not active)
CN1C=CC=C/C1=C(\C#N)c1nc2ccccc2[nH]1,IC50,[4],46.4 µM (active)
same,IC50,Large T antigen,7.7 µM (active)
O=C(NCCN1CCOCC1)c1csc2c1CCCCC2,AC50,Cytochrome P450 2D6,17.8 µM (inconclusive)
same,AC50,Cytochrome P450 1A2,20 µM (inconclusive)
COc1ccc(NC(=O)Nc2nnc(C(C)(C)C)s2)cc1,EC50,[5],> 53 µM (inactive)
same,IC50,[6],> 47.1 µM (inactive)
COC(=O)c1cccc(NC(=O)NC(=O)c2ccccc2Cl)c1,EC50,[1],2.84 µM (active)
same,EC50,[2],7.75 µM (active)
same,EC50,[3],2 µM (active)
COc1ccc2c(c1)c(CC(=O)Nc1cc(C)ccc1C)c(C)n2C(=O)c1ccc(Cl)cc1,AC50,[7],13.1 µM (active)
same,EC50,[8],> 60 µM (not active)
same,AC50,[9],5.69 µM (active)
same,EC50,[5],> 53 µM (inactive)
same,EC50,[10],0.938 µM (active)
COC(=O)c1c(NC(=O)COc2ccc(Cl)cc2Cl)sc2c1CC(C)(C)NC2(C)C,EC50,[1],> 120 µM (not active)
same,EC50,[2],9.53 µM (active)
same,AC50,[11],5.58 µM (active)
same,EC50,[3],8.93 µM (active)
Nc1ccc2nc(NC(=O)C3CCCCC3)sc2c1,AC50,[12],0.957 µM (active)
COc1ccc(OC)c(C(=O)N2CCC(n3nccc3NC(=O)CC(C)C)CC2)c1,EC50,[1],> 120 µM (not active)
same,EC50,[2],> 120 µM (not active)
same,EC50,[3],> 120 µM (not active)
CC(NC(=O)C(=O)N1CCCCC1)C(c1cccs1)N1CCN(c2ccc(F)cc2)CC1 (stereo not drawn),AC50,[12],1.44 µM (active)
Cc1ccccc1NS(=O)(=O)c1ccc2ncc(C(=O)NCCCN3CCOCC3)c(O)c2c1,AC50,Cytochrome P450 2D6,20 µM (inconclusive)
same,AC50,Cytochrome P450 1A2,39.8 µM (inconclusive)
same,AC50,Cytochrome P450 2C19,25.1 µM (inconclusive)
c1cc(CN2CCCC3(CCNCC3)C2)ccn1,AC50,Cytochrome P450 2D6,25.1 µM (inconclusive)
same,AC50,Cytochrome P450 2C19,25.1 µM (inconclusive)
CC(=O)Nc1ccc(S(=O)(=O)N(Cc2cc3ccc(C)cc3nc2O)CC2CCCO2)cc1 (stereo not drawn),EC50,[1],60.6 µM (active)
same,EC50,[2],11.8 µM (active)
same,EC50,[3],16.8 µM (active)
Cc1[nH]c2ccc(C(=O)N3CCCCC3)cc2c1C,AC50,[12],2.77 µM (active)
CC(=O)N1CCC(=NNC(=O)c2cccs2)CC1,AC50,[12],13.5 µM (active)
CCN(Cc1ccncc1)C(=O)c1cc(Br)cc(Br)c1O,AC50,[12],1.25 µM (active)
COc1ccc2nc(S)[nH]c2c1,AC50,[12],0.581 µM (active)
COc1ccc(Oc2nccc(-c3ccc(F)cc3)c2C#N)cc1,AC50,Cytochrome P450 2D6,0.00562 µM (inconclusive)
same,AC50,Cytochrome P450 1A2,5.01 µM (inconclusive)
same,AC50,Cytochrome P450 3A4,12.6 µM (inconclusive)
Cc1cccc(C(=O)Nc2nnc(S(=O)(=O)N(C)Cc3ccco3)s2)c1,AC50,[12],9.45 µM (active)
CN1Cc2cc(C(=O)c3ccccc3O)cnc2NC1=O,AC50,[12],6.59 µM (active)
CCCCCn1c(SCCCC)nc2c1c(=O)[nH]c(=O)n2C,EC50,[1],> 120 µM (not active)
same,EC50,[2],> 60 µM (not active)
same,EC50,[3],17.1 µM (active)
CCOc1ccccc1NC(=O)CCn1cccc1,EC50,[1],> 120 µM (not active)
same,EC50,[2],> 120 µM (not active)
same,EC50,[3],> 120 µM (not active)
COc1ccc(N2CCC(CN=C(S)Nc3c(C)cc(C)cc3C)C2)cc1 (stereo not drawn),IC50,Large T antigen,19.1 µM (active)
COC(=O)Cc1csc(N/C=C2/C(=O)N(c3cccc(C(F)(F)F)c3)C(=O)c3ccccc32)n1,EC50,[1],> 120 µM (not active)
same,EC50,[2],11.3 µM (active)
same,EC50,[3],> 120 µM (not active)
Sc1nccc(-c2cccs2)n1,AC50,[12],0.664 µM (active)
O=C(Nc1cc(F)ccc1F)N1CCN(c2ccnc3cc(Cl)ccc23)CC1,AC50,[7],10.2 µM (active)
same,AC50,[9],22.8 µM (active)
CCN(CC)c1ccc(NC(=O)C2CC(=O)N(Cc3ccccc3)C2)cc1 (stereo not drawn),IC50,Large T antigen,14.5 µM (active)
O=C(/C=C/c1ccc(O)c(O)c1)O[C@@H]1C[C@](O)(C(=O)O)C[C@@H](O)[C@H]1O,IC50,Large T antigen,2.86 µM (active)
CCN(CC)c1ccc(NC(=O)C2=CC=CN3CCS(=O)(=O)N=C23)cc1,AC50,[12],0.295 µM (active)
same,IC50,[4],67 µM (active)
Cn1cccc1C(=O)N1CCC2(CCCN(C(c3ccccc3)c3ccccc3)C2)CC1,AC50,Cytochrome P450 2D6,10 µM (inconclusive)
same,AC50,Cytochrome P450 3A4,6.31 µM (inconclusive)
same,AC50,Cytochrome P450 2C19,39.8 µM (inconclusive)
COc1cc(C(=O)OCC(=O)NC2CCCCCC2)ccc1OCC(C)C,AC50,[7],35.9 µM (active)
Cc1[nH]n(C(N)=S)c(=O)c1/N=N/c1ccc(Cl)cc1Cl,AC50,[12],0.674 µM (active)
Cc1c(Br)c(O)c(Br)c(O)c1/C=N/n1c(S)nnc1-c1ccccc1,AC50,[12],4.15 µM (active)
CN(C)/C=N/C1=NN(c2cccc(C(F)(F)F)c2)CC1,AC50,[12],1.5 µM (active)
same,IC50,[4],38.3 µM (active)
same,IC50,Large T antigen,13 µM (active)
COc1cc(/C=N/NC(=O)c2c(-c3ccccc3)noc2C)ccc1O,IC50,[4],50.2 µM (active)
same,IC50,Large T antigen,15 µM (active)
CN1CCN(/N=C/c2ccc(N(C)c3ccccc3)cc2)CC1,AC50,[12],1.9 µM (active)
CCN(CC)c1ccc(/C=N/O)cc1,IC50,[4],20.2 µM (active)
same,IC50,Large T antigen,6.52 µM (active)
COc1ccc(C(=O)/C=C(\C)Nc2ccc(NC(C)=O)cc2)cc1,IC50,Large T antigen,53.3 µM (active)
COc1cc2c(cc1OC)C(c1ccc(Br)cc1)NCC2 (stereo not drawn),EC50,[1],> 120 µM (not active)
same,EC50,[2],> 120 µM (not active)
same,EC50,[8],> 60 µM (not active)
same,EC50,[3],> 120 µM (not active)
same,EC50,[10],> 60 µM (not active)
CC(C)n1cc(CN2CCCC(C(=O)Nc3cccc(-c4cc5ccccc5[nH]4)c3)C2)cn1 (stereo not drawn),EC50,[1],> 120 µM (not active)
same,EC50,[2],30.6 µM (active)
same,EC50,[3],14.5 µM (active)

# — ChEMBL document CHEMBL1201862, “PubChem BioAssay data set” (2004)
